pIC50: −log10 of the molar value.
Biological target: T1, DnaE1 (Mycobacterium tuberculosis, UniProt P9WNT7)
T1 sequence (P9WNT7 1-1184): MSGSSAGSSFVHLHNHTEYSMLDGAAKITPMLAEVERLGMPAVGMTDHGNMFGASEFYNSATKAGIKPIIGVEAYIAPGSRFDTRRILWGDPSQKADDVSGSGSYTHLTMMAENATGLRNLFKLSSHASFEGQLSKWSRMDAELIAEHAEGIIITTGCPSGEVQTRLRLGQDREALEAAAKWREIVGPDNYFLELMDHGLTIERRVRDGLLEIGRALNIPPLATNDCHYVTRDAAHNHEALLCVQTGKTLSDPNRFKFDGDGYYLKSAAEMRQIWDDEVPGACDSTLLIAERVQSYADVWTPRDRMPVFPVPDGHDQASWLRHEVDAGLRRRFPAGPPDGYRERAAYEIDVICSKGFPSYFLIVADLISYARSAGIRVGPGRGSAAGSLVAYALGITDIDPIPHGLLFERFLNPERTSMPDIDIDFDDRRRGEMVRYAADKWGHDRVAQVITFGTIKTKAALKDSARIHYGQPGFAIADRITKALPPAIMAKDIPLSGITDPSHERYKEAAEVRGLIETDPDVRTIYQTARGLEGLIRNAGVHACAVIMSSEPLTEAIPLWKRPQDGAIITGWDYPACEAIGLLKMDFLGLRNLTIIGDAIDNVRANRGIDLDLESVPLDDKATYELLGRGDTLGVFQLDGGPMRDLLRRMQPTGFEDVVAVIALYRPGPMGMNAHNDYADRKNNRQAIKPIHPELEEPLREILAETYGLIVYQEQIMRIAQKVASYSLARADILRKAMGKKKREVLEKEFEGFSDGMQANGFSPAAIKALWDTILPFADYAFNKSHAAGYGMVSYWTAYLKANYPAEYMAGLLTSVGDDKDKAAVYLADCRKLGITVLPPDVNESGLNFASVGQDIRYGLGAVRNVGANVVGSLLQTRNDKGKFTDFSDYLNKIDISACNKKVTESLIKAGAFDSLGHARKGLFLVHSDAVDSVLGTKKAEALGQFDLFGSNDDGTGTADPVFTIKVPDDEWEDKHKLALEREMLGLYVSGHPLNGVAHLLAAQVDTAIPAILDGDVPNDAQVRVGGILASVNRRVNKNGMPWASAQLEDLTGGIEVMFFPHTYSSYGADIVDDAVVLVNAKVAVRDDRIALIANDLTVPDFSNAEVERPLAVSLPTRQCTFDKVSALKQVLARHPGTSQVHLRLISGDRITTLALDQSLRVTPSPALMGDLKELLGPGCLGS
Experiment: 2-aminopurine fluorescence exonuclease assay, dose-response
Format: biochemical

SMILES: OC[C@H]1O[C@@H](n2cnc3c(S)ncnc32)[C@H](O)[C@@H]1O [6-thioinosine]
- pIC50: 4.19

Source: PMC9996622 (ACS Omega, 2023)
